What all share (assay type): cell-based
One assay addresses T1, human TLR7 (Homo sapiens, UniProt Q9NYK1).
T1 construct: host or cells: HEK-Blue cells (HEK293-derived reporter line)
T1 sequence (Q9NYK1 27-1049): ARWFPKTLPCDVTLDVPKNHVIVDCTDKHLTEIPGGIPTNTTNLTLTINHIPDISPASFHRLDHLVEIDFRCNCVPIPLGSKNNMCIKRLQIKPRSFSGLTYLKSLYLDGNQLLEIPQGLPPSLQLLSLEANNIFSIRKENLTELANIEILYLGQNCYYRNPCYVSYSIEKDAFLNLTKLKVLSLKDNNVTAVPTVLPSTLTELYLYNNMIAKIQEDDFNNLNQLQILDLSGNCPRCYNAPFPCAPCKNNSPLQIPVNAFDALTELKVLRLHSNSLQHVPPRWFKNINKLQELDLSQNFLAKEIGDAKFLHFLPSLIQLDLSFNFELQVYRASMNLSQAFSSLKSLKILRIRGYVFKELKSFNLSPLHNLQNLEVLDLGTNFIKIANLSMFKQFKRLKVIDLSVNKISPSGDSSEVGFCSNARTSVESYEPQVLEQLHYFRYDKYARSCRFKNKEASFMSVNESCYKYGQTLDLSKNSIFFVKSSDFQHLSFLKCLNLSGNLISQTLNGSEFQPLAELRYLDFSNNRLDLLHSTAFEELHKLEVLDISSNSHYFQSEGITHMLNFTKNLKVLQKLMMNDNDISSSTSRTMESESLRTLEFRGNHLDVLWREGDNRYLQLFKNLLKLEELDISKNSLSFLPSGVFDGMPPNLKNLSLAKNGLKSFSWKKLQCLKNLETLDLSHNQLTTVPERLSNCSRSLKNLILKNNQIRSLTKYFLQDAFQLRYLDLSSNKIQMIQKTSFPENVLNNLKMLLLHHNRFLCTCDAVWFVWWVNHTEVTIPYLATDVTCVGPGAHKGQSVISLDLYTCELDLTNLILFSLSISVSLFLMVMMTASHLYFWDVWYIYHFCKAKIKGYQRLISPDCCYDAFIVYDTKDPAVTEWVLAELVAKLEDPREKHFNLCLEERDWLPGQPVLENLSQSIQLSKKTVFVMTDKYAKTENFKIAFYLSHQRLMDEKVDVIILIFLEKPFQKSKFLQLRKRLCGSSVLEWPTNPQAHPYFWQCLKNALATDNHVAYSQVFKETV
The assay is described as follows: TLR7 inhibition reporter assay (HEK-Blue cells, SEAP reporter, gardiquimod stimulation). Conditions: HEK-Blue cells overexpressing human TLR7, SEAP reporter, gardiquimod 7.5 μM. The method, boiled down:
(§1)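 Agonists (final): TLR7 gardiquimod 7.5 μM; TLR8 R848 15.9 μM; TLR9 ODN2006 5 nM. HEK-Blue reporter cells, 30 min RT compound pre-incubation, 0.05 nM–50 μM dose range, 22 h at 37 °C, colorimetric SEAP detection medium. % inhibition relative to agonist+DMSO and known-inhibitor wells.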

For another assay, the target named is T2, human TLR8 (Homo sapiens, UniProt Q9NR97).
T2 construct: host or cells: HEK-Blue cells (HEK293-derived reporter line)
T2 sequence (Q9NR97 27-1041): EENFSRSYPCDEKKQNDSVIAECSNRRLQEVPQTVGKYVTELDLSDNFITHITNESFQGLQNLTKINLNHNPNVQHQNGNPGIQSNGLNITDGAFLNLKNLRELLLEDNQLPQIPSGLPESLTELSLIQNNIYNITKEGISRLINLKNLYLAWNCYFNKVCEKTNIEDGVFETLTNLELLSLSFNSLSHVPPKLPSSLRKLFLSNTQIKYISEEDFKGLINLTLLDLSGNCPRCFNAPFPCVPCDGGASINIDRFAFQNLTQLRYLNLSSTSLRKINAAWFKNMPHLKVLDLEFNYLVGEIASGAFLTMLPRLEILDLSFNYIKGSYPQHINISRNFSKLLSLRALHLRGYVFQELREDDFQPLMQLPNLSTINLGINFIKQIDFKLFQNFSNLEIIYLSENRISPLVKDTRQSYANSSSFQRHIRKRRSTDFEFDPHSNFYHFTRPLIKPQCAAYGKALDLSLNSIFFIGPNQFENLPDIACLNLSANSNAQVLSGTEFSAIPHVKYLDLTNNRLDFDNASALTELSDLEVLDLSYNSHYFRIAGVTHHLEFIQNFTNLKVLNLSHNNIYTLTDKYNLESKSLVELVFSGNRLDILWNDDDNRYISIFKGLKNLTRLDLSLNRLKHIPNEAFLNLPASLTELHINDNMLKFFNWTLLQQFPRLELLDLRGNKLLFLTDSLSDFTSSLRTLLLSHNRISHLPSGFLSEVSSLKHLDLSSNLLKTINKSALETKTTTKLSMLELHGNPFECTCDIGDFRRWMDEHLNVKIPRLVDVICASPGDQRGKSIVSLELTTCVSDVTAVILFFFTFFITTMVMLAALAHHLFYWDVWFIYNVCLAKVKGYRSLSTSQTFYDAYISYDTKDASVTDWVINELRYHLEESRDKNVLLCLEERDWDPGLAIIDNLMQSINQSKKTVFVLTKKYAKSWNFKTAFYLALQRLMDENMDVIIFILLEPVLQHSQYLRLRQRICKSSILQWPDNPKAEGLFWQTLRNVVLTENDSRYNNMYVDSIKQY
The assay is described as follows: TLR8 inhibition reporter assay (HEK-Blue cells, SEAP reporter, R848 stimulation). Particulars: HEK-Blue cells overexpressing human TLR8, SEAP reporter, R848 15.9 μM. The method, boiled down: as §1

Another assay addresses T3, human TLR9 (Homo sapiens, UniProt Q9NR96).
T3 construct: host or cells: HEK-Blue cells (HEK293-derived reporter line)
T3 sequence (Q9NR96 26-1032): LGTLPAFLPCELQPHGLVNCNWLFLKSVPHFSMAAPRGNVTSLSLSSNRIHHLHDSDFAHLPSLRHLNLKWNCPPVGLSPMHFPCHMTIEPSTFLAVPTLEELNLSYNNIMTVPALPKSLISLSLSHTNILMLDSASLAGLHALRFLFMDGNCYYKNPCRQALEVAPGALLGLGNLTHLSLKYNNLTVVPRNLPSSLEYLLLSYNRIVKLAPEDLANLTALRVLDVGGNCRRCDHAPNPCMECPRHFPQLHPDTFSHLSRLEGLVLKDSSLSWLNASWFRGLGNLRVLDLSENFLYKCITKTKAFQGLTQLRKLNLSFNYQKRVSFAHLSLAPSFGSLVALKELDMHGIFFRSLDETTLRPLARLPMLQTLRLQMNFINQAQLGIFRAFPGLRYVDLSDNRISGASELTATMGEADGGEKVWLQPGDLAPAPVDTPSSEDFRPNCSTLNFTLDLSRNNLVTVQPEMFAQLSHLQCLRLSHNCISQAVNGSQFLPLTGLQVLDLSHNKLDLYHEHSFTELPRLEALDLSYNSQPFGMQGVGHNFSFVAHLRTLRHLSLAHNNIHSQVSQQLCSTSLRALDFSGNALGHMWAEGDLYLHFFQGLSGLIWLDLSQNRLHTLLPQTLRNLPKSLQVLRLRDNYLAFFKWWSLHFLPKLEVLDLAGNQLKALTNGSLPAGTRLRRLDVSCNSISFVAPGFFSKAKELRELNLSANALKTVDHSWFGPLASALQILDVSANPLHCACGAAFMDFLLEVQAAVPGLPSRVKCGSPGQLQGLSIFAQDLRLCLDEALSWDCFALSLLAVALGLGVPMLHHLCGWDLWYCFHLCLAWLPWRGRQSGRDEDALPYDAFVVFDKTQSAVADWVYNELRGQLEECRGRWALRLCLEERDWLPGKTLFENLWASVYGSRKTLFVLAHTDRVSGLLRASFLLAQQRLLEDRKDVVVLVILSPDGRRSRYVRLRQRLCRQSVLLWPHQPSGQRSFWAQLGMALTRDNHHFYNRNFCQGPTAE
The assay is described as follows: TLR9 inhibition reporter assay (HEK-Blue cells, SEAP reporter, ODN2006 stimulation). Conditions: HEK-Blue cells overexpressing human TLR9, SEAP reporter, ODN2006 5 nM. The method, boiled down: as §1

Structures are written as SMILES. A value given as a limit tells only on which side of the number the result lay.

Take `CC(C)c1c(-c2ccn3nncc3c2)[nH]c2ccc(C3CCN(CC(=O)N(C)C)CC3)cc12` [Example 302, 2-(4-(2-([1,2,3]triazolo[1,5-a]pyridin-5-yl)-3-isopropyl-1H-indol-5-yl)piperidin-1-yl)-N,N-dimethylacetamide]: the half-inhibitory concentration (IC50) against human TLR7 is under 100 nM; against human TLR8 it was 100 to 1000 nM; against human TLR9, 1000 to 50000 nM.

As to `CNC(=O)CN1CCC(c2ccc3[nH]c(-c4ccn5nncc5c4)c(C(C)C)c3c2)CC1` [Example 303, 2-(4-(2-([1,2,3]triazolo[1,5-a]pyridin-5-yl)-3-isopropyl-1H-indol-5-yl)piperidin-1-yl)-N-methylacetamide], the half-maximal inhibitory concentration (IC50) against human TLR7 is under 100 nM; at human TLR8, 100 to 1000 nM; against human TLR9, 1000 to 50000 nM.

For `CC(C)c1c(-c2ccn3nnnc3c2)[nH]c2ccc(C3CCN(CC(=O)N(C)C)CC3)cc12` [Example 304, 2-(4-(3-isopropyl-2-(tetrazolo[1,5-a]pyridin-7-yl)-1H-indol-5-yl)piperidin-1-yl)-N,N-dimethylacetamide], the IC50 is under 100 nM at human TLR7, 100 to 1000 nM at human TLR8 and 1000 to 50000 nM on human TLR9.

As for `CC(C)c1c(-c2ccn3cnnc3c2)[nH]c2ccc(C3CCN(CC(=O)N(C)C)CC3)cc12` [Example 305, 2-(4-(2-([1,2,4]triazolo[4,3-a]pyridin-7-yl)-3-isopropyl-1H-indol-5-yl)piperidin-1-yl)-N,N-dimethylacetamide], the figures for the IC50 against human TLR7, against human TLR8 and on human TLR9 were 100 to 1000 nM, 100 to 1000 nM and 1000 to 50000 nM, respectively.

As for `CNC(=O)CN1CCC(c2ccc3[nH]c(-c4ccn5cnnc5c4)c(C(C)C)c3c2)CC1` [Example 306, 2-(4-(2-([1,2,4]triazolo[4,3-a]pyridin-7-yl)-3-isopropyl-1H-indol-5-yl)piperidin-1-yl)-N-methylacetamide], the half-inhibitory concentration (IC50) against human TLR7 was in the range of 100 to 1000 nM; at human TLR8, 100 to 1000 nM; at human TLR9 it was 1000 to 50000 nM.

For `Cc1cc(-c2[nH]c3ccc(C4CCN(CC(=O)N(C)C)CC4)cc3c2C(C)C)cn2nncc12` [Example 307, 2-(4-(3-isopropyl-2-(4-methyl-[1,2,3]triazolo [1,5-a]pyridin-6-yl)-1H-indol-5-yl)piperidin-1-yl)-N,N-dimethylacetamide], the figures for the IC50 against human TLR7, against human TLR8 and on human TLR9 were 100 to 1000 nM, 100 to 1000 nM and 1000 to 50000 nM, respectively.

Turning to `Cc1c(-c2[nH]c3ccc(C4CCN(CC(=O)N(C)C)CC4)cc3c2C(C)C)ccc2nnnn12` [Example 308, 2-(4-(3-isopropyl-2-(5-methyltetrazolo[1,5-a]pyridin-6-yl)-1H-indol-5-yl)piperidin-1-yl)-N,N-dimethylacetamide], the concentration for half-maximal inhibition (IC50) at human TLR7 was 100 to 1000 nM; against human TLR8 it was under 100 nM; at human TLR9, 1000 to 50000 nM.

In the case of `Cc1c(-c2[nH]c3ccc(C4CCN(CC(=O)N(C)C)CC4)cc3c2C(C)C)cn2nnnc2c1C` [Example 309, 2-(4-(2-(7,8-dimethyltetrazolo[1,5-a]pyridin-6-yl)-3-isopropyl-1H-indol-5-yl)piperidin-1-yl)-N,N-dimethylacetamide], the 50% inhibitory concentration (IC50) against human TLR7 was under 100 nM; against human TLR8, under 100 nM; against human TLR9, 1000 to 50000 nM.

Regarding `Cc1cc(-c2[nH]c3ccc(C4CCN(CC(=O)N(C)C)CC4)cc3c2C(C)C)c(C)n2nnnc12` [Example 310, 2-(4-(2-(5,8-dimethyltetrazolo[1,5-a]pyridin-6-yl)-3-isopropyl-1H-indol-5-yl)piperidin-1-yl)-N,N-dimethylacetamide], the IC50 on human TLR7 is under 100 nM; on human TLR8, under 100 nM; at human TLR9, 1000 to 50000 nM.

For `Cc1cc(-c2[nH]c3ccc(C4CCN(CC(N)=O)CC4)cc3c2C(C)C)cn2nnnc12` [Example 311, 2-(4-(3-isopropyl-2-(8-methyltetrazolo[1,5-a]pyridin-6-yl)-1H-indol-5-yl)piperidin-1-yl) acetamide], the figures for the IC50 on human TLR7, against human TLR8 and against human TLR9 were under 100 nM, under 100 nM and 1000 to 50000 nM, respectively.

On to `CNC(=O)CN1CCC(c2ccc3[nH]c(-c4cc(C)c5nnnn5c4)c(C(C)C)c3c2)CC1` [Example 312, 2-(4-(3-isopropyl-2-(8-methyltetrazolo[1,5-a]pyridin-6-yl)-1H-indol-5-yl)piperidin-1-yl)-N-methylacetamide], for which the IC50 against human TLR7 is under 100 nM; against human TLR8 it was under 100 nM; on human TLR9 it was 1000 to 50000 nM.

Take `Cc1cc(-c2[nH]c3ccc(C4CCN(CC(=O)N(C)C)CC4)cc3c2C(C)C)cn2nnnc12` [Example 313, 2-(4-(3-isopropyl-2-(8-methyltetrazolo[1,5-a]pyridin-6-yl)-1H-indol-5-yl)piperidin-1-yl)-N,N-dimethylacetamide]: the IC50 against human TLR7 was under 100 nM; on human TLR8 it was under 100 nM; on human TLR9, 1000 to 50000 nM.

Values taken from US11739098B2 (BRISTOL-MYERS SQUIBB COMPANY, priority 2017, dated 2023).
